Laboratory results: US11040954B1, “CXCR3 receptor agonists” (RECEPTOS LLC, priority 2016, dated 2021)

Biological target: T1, CXCR3 (Homo sapiens, UniProt P49682)
T1 construct: host or cells: CHO-K1 (cAMP Hunter CHOK1 CXCR3 Gi cell line)
T1 sequence (P49682 1-368): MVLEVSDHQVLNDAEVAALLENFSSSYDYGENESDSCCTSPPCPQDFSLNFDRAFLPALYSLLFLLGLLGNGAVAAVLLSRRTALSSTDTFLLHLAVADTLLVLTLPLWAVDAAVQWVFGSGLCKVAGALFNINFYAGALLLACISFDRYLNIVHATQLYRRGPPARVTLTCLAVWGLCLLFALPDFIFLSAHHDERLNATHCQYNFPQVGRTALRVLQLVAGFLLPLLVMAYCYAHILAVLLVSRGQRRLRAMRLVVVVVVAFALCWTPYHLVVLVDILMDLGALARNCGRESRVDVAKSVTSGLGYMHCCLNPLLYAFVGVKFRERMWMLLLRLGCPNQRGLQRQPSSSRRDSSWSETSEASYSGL
Assay: CXCR3 cAMP agonist assay (cAMP Hunter CHOK1 CXCR3 Gi cell line, forskolin-stimulated, HitHunter cAMP detection)
Format: cell-based
Settings: cAMP Hunter CHOK1 CXCR3 Gi cells, 20 μM forskolin, 30 minutes; read-out: Activity (CXCR3 cAMP agonist assay compound EC50)
In short: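 CHOK1 cells expressing human CXCR3 with Gi coupling, 50,000/well in suspension in HBSS/10 mM HEPES/0.1% BSA pH 7.4, were co-treated with 20 μM forskolin and compound (12-point, 0-10 μM, 1% DMSO) for 30 min. cAMP was read by enzyme-complementation luminescence; CXCL11 dose response set maximum efficacy.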

Work on `Cc1cc(NC(=O)[C@H](CCN)NC(=O)[C@@H]2Cc3ccccc3CN2C(=O)CCC(=O)N2CCN(c3ncccn3)CC2)ccc1Cl` [Compound 12-107] yielded an EC50 of 50 to 250 nM.

`Cc1cc(NC(=O)[C@H](CCN)NC(=O)[C@@H]2Cc3ccccc3CN2C(=O)CCC(=O)N2CCN(c3nccs3)CC2)ccc1Cl` [Compound 12-108] showed an EC50 of 50 to 250 nM.

`Cc1cc(NC(=O)[C@H](CCN)NC(=O)[C@@H]2Cc3ccccc3CN2C(=O)CCC(=O)N2CCN(C(=O)N(C)C)CC2)ccc1Cl` [Compound 12-109] gave an EC50 of 250 to 500 nM.

`Cc1cc(NC(=O)[C@H](CCN)NC(=O)[C@@H]2Cc3ccccc3CN2C(=O)CCC(=O)N2CCN3CCC[C@@H]3C2)ccc1Cl` [Compound 12-110] gave an EC50 of less than 50 nM.

For `CC[C@H]1CCCN1C(=O)CCC(=O)N1Cc2ccccc2C[C@H]1C(=O)N[C@@H](CCN)C(=O)Nc1ccc(Cl)c(C)c1` [Compound 12-111], the EC50 was less than 50 nM.

Compound `CC[C@@H]1CCCCN1C(=O)CCC(=O)N1Cc2ccccc2C[C@H]1C(=O)N[C@@H](CCN)C(=O)Nc1ccc(Cl)c(C)c1` [Compound 12-112] has an EC50 of less than 50 nM.

Compound `COCCN(C)C(=O)CCC(=O)N1Cc2ccccc2C[C@H]1C(=O)N[C@@H](CCN)C(=O)Nc1ccc(Cl)c(C)c1` [Compound 12-113] has an EC50 of 250 to 500 nM.

In the case of `Cc1cc(NC(=O)[C@H](CCN)NC(=O)[C@@H]2Cc3ccccc3CN2C(=O)CCC(=O)N2CCNCC2)ccc1Cl` [Compound 12-115], the EC50 is reported as greater than 500 nM.

Work on `Cc1cc(NC(=O)[C@H](CCN)NC(=O)[C@@H]2Cc3ccccc3CN2C(=O)CCC(=O)N2CCN(C)C[C@@H]2C)ccc1Cl` [Compound 12-116] yielded an EC50 of 50 to 250 nM.

`Cc1cc(NC(=O)[C@H](CCN)NC(=O)[C@@H]2Cc3ccccc3CN2C(=O)CCC(=O)N2CCN(CC#N)CC2)ccc1Cl` [Compound 12-117] was tested, and the EC50 was 50 to 250 nM.

With `[2H]C([2H])([2H])N1CCN(C(=O)CCC(=O)N2Cc3ccccc3C[C@H]2C(=O)N[C@@H](CCN)C(=O)Nc2ccc(Cl)c(C)c2)CC1` [Compound 12-118] the EC50 was less than 50 nM.

With `Cc1cc(NC(=O)[C@H](CCN)NC(=O)[C@@H]2Cc3ccccc3CN2C(=O)CCC(=O)N(C)CC(F)(F)F)ccc1Cl` [Compound 12-119] the EC50 was 250 to 500 nM.

For `CCC1CCCN(C(=O)CCC(=O)N2Cc3ccccc3C[C@H]2C(=O)N[C@@H](CCN)C(=O)Nc2ccc(Cl)c(C)c2)C1` (stereo partly drawn) [Compound 12-120], the EC50 was less than 50 nM.

`Cc1cc(NC(=O)[C@H](CCN)NC(=O)[C@@H]2Cc3ccccc3CN2C(=O)CCC(=O)N2CCCCC2C(C)C)ccc1Cl` (stereo partly drawn) [Compound 12-121] gave an EC50 of less than 50 nM.

With `Cc1cc(NC(=O)[C@H](CCN)NC(=O)[C@@H]2Cc3ccccc3CN2C(=O)CCC(=O)N2CC[C@@H](C)C2)ccc1Cl` [Compound 12-122] the EC50 was less than 50 nM.

`Cc1cc(NC(=O)[C@H](CCN)NC(=O)[C@@H]2Cc3ccccc3CN2C(=O)CCC(=O)N2CC[C@H](C)C2)ccc1Cl` [Compound 12-123] showed an EC50 of less than 50 nM.

Compound `Cc1cc(NC(=O)[C@H](CCN)NC(=O)[C@@H]2Cc3ccccc3CN2C(=O)CCC(=O)N(C)c2ccccc2)ccc1Cl` [Compound 12-124] has an EC50 of 250 to 500 nM.

Work on `CN(C(=O)CCC(=O)N1Cc2ccccc2C[C@H]1C(=O)NC1(C(=O)Nc2ccc(Cl)c(Cl)c2F)CCNCC1)C(C)(C)C` [Compound 12-125] yielded an EC50 of 50 to 250 nM.

In the case of `CCN1CCN(C(=O)CCC(=O)N2Cc3ccccc3C[C@H]2C(=O)N[C@@H](CCN)C(=O)Nc2ccc(Cl)c(C)c2)C(C)(C)C1` [Compound 12-126], the EC50 is reported as 50 to 250 nM.

`CC1(C)COCCN1C(=O)CCC(=O)N1Cc2ccccc2C[C@H]1C(=O)NC1(C(=O)Nc2ccc(Cl)c(Cl)c2F)CCNCC1` [Compound 12-127] showed an EC50 of 50 to 250 nM.

For `O=C(NC1(C(=O)Nc2ccc(Cl)c(Cl)c2F)CCNCC1)[C@@H]1Cc2ccccc2CN1C(=O)CCC(=O)N1CCCC2(CCC2)C1` [Compound 12-128], the EC50 was less than 50 nM.

`CC(C)(C)CNC(=O)CCC(=O)N1Cc2ccccc2C[C@H]1C(=O)NC1(C(=O)Nc2ccc(Cl)c(Cl)c2F)CCNCC1` [Compound 12-129] was tested, and the EC50 was 250 to 500 nM.

`CC1(C)CCCN(C(=O)CCC(=O)N2Cc3ccccc3C[C@H]2C(=O)NC2(C(=O)Nc3ccc(Cl)c(Cl)c3F)CCNCC2)C1` [Compound 12-130] was tested, and the EC50 was less than 50 nM.

`Cc1cc(NC(=O)[C@H](CCN)NC(=O)[C@@H]2Cc3ccccc3CN2C(=O)CCC(=O)N2CCN(C)C(C)(C)C2)ccc1Cl` [Compound 12-131] gave an EC50 of less than 50 nM.

Work on `Cc1cc(NC(=O)[C@H](CCN)NC(=O)[C@@H]2Cc3ccccc3CN2C(=O)CCC(=O)N2CCC[C@@H]2c2ccccc2)ccc1Cl` [Compound 12-132] yielded an EC50 of 50 to 250 nM.

`Cc1cc(NC(=O)[C@H](CCN)NC(=O)[C@@H]2Cc3ccccc3CN2C(=O)CCC(=O)N2CC(N(C)C)C2)ccc1Cl` [Compound 12-133] gave an EC50 of 50 to 250 nM.

`COC[C@@H]1CCCN1C(=O)CCC(=O)N1Cc2ccccc2C[C@H]1C(=O)N[C@@H](CCN)C(=O)Nc1ccc(Cl)c(C)c1` [Compound 12-134] was tested, and the EC50 was 50 to 250 nM.

Compound `CC1(C)CCCCN1C(=O)CCC(=O)N1Cc2ccccc2C[C@H]1C(=O)NC1(C(=O)Nc2ccc(Cl)c(Cl)c2F)CCNCC1` [Compound 12-135] has an EC50 of less than 50 nM.

`O=C(NC1(C(=O)Nc2ccc(Cl)c(Cl)c2F)CCNCC1)[C@@H]1Cc2ccccc2CN1C(=O)CCC(=O)N1CCCC12CCC2` [Compound 12-136] showed an EC50 of less than 50 nM.

`CN(CC(C)(C)C)C(=O)CCC(=O)N1Cc2ccccc2C[C@H]1C(=O)NC1(C(=O)Nc2ccc(Cl)c(Cl)c2F)CCNCC1` [Compound 12-137] showed an EC50 of 50 to 250 nM.

Compound `Cc1cc(NC(=O)[C@H](CCN)NC(=O)[C@@H]2Cc3ccccc3CN2C(=O)CCC(=O)N2CCC[C@H]2CF)ccc1Cl` [Compound 12-139] has an EC50 of less than 50 nM.

In the case of `Cc1cc(NC(=O)[C@H](CCN)NC(=O)[C@@H]2Cc3ccccc3CN2C(=O)CCC(=O)N2CCN(C)c3ccccc32)ccc1Cl` [Compound 12-140], the EC50 is reported as less than 50 nM.

Work on `Cc1cc(NC(=O)[C@H](CCN)NC(=O)[C@@H]2Cc3ccccc3CN2C(=O)CCC(=O)N2[C@H](C)CCC[C@H]2C)ccc1Cl` [Compound 12-141] yielded an EC50 of less than 50 nM.

With `Cc1cc(NC(=O)[C@H](CCN)NC(=O)[C@@H]2Cc3ccccc3CN2C(=O)CCC(=O)N2[C@@H](C)CCC[C@@H]2C)ccc1Cl` [Compound 12-142] the EC50 was less than 50 nM.

Compound `Cc1cc(NC(=O)[C@H](CCN)NC(=O)[C@@H]2Cc3ccccc3CN2C(=O)CCC(=O)N2CCC[C@H]2C(F)F)ccc1Cl` [Compound 12-143] has an EC50 of less than 50 nM.

Compound `Cc1cc(NC(=O)[C@H](CCN)NC(=O)[C@@H]2Cc3ccccc3CN2C(=O)CCC(=O)N2CCC[C@@H]2CF)ccc1Cl` [Compound 12-144] has an EC50 of less than 50 nM.

For `Cc1cc(NC(=O)[C@H](CCN)NC(=O)[C@@H]2Cc3ccccc3CN2C(=O)CCC(=O)N2CCN(C)C2)ccc1Cl` [Compound 12-145], the EC50 was less than 50 nM.

`Cc1cc(NC(=O)[C@H](CCN)NC(=O)[C@@H]2Cc3ccccc3CN2C(=O)CCC(=O)N2CC3CCC2CN3C)ccc1Cl` (stereo partly drawn) [Compound 12-146] was tested, and the EC50 was greater than 500 nM.

`Cc1cc(NC(=O)[C@H](CCN)NC(=O)[C@@H]2Cc3ccccc3CN2C(=O)CCC(=O)N2CCC[C@H]2c2ccccc2)ccc1Cl` [Compound 12-147] was tested, and the EC50 was less than 50 nM.

In the case of `NCC[C@H](NC(=O)[C@@H]1Cc2ccccc2CN1C(=O)CCC(=O)N1CCC[C@@H]1c1ccccc1)C(=O)Nc1ccc(Cl)c(Cl)c1F` [Compound 12-148], the EC50 is reported as 250 to 500 nM.

In the case of `NCC[C@H](NC(=O)[C@@H]1Cc2ccccc2CN1C(=O)CCC(=O)N1CCC[C@H]1c1ccccc1)C(=O)Nc1ccc(Cl)c(Cl)c1F` [Compound 12-149], the EC50 is reported as less than 50 nM.

`CC[C@H]1CN(C(=O)CCC(=O)N2Cc3ccccc3C[C@H]2C(=O)N[C@@H](CCN)C(=O)Nc2ccc(Cl)c(C)c2)CCN1C` [Compound 12-150] gave an EC50 of less than 50 nM.
